This assay deals with mouse trigeminal neurons. In words: Calcium imaging on primary cultured mouse trigeminal neurons. The class given is cell-based. The method, then: Trigeminal ganglia neurons were isolated from Swiss CD-1 mice (Charles River Laboratories, Sulzfeld, Germany). All experiments involving animals were carried out in accordance with the European Union Community Council’s guidelines and approved by the competent state office of the Federal Land of Northrhine Westphalia (file number 87-51.04.2010.A180). At postnatal day 2–5, the mice were sacrificed by decapitation. The brain was removed, and both trigeminal ganglia were excised. The ganglia were washed in PBS+/+ (Invitrogen, Karlsruhe, Germany) and collected in Leibovitz Medium (L15, Invitrogen) on ice. The ganglia were transferred to Dulbecco’s modified essential medium (DMEM) containing 0.025% collagenase (type IA, Sigma–Aldrich). The minced ganglia were incubated for 45 min in a humidified atmosphere (37°C, 95% humidity, 6% CO2) before trituration. The cell suspension was centrifuged at 1000 rpm for 4 min at room temperature and the pellet was resuspended in F-12 medium (Invitrogen; 31331-D-MEM/F-12, GlutaMax^TM) supplemented with 10% fetal bovine serum (FBS^TM; Invitrogen), 200 U/mL penicillin and 200 U/mL streptomycin. The cell suspension (50 μL) was then plated on poly L-lysine (0.01%) coated glass coverslips (30 mm, Sarstedt, Nümbrecht, Germany), placed in cell culture dishes (35 mm) and kept in a humidified atmosphere (37°C, 95% humidity, 6% CO2) for 1 h. Subsequently, F-12 medium (2 mL) supplemented with FBS (10%), 200 U/mL penicillin and 200 U/mL streptomycin was added to each dish. The cells were kept in an incubator (37°C, 95% humidity, 6% CO2) until use. The trigeminal ganglion neurons were incubated with the Ca^2+-sensitive reporter dye Fura-2/AM (Invitrogen, final concentration: 3 μM) 30–45 min before starting the experiment. […] The emitted light (510 nm) was detected with a 12-bit 1376 × 1032-pixel charge-coupled device camera (F-View II, Olympus), and Cell® imaging software (Olympus). The changes in intracellular calcium levels were calculated as the intensity ratio of f340/f380 [(E(510) at 340 nm illumination)/(E(510) at 380 nm illumination)]. […]

The values below come from PMC5483439, “The Effect of Pungent and Tingling Compounds from Piper nigrum L. on Background K^+ Currents” (Frontiers in Pharmacology, 2017).

Structures are written as SMILES.

As to `O=C(/C=C/C=C/c1ccc2c(c1)OCO2)N1CCCCC1` [1a, piperine], where the note is “100 μM”, the “trigeminal neurons showing a calcium response” value is 68 out of 619. Also, the “piperine-responsive neurons still responsive in the presence of TRP antagonists” value (100 μM piperine with capsazepine 5 μM and HC-030031 20 μM, 25 of 37 neurons) was 68%. The “piperine-responsive neurons also capsaicin-responsive” value (100 μM piperine, 10 μM capsaicin, 35 of 68 neurons) came to 51%.
